Data from patent US5571786A, “Use of protein C or the activation peptide of protein C for preparing a pharmaceutical preparation” (Immuno Aktiengesellschaft, priority 1990, dated 1996).
Where “and” joins values, the source holds several entries; their conditions need not be identical. Equal entries are not always repeated.

Tests used:
inflamed rat paw model = assay: inflamed rat paw model: pain threshold after local carrageenan (Randall and Selitto); type: in vivo; conditions: for antagonism of the anti-nociceptive effect of protein C: β-blocking agent given with protein C; for Pain threshold: 3 hrs after carrageenan, protein C 800 U/kg
Source text: See, Kirchhoff et al., Neuroscience Lett. 111:206-210 (1990). Subcutaneous administration of carrageenan into the rat paw produces an inflammatory edema characterized by infiltration of neutrophils, plasma extravasation, release and synthesis of histamine, bradykinins and prostaglandin E2. Id. As such, the rat paw is a recognized model of the inflammatory process and may be utilized for studying the nociceptive effects attendant thereto. Id. Thus, the rat paw provides a recognized model for evaluating the anti-nociceptive effects of protein C and/or the activation peptide of protein C according to the present invention.
The pain threshold was measured in a manner analogous to the method described by Randall and Selitto (Randall LO and Selitto JJ: A method for measurement of analgesic activity on inflamed tissue, Arch. Int. Pharmacodyn. 111, 409-419, 1957). To this end, a mercury manometer was connected to a 10 ml syringe whose plunger was equipped with a short bullet-shaped peg. Increasing pressure was applied to the rat's paw through this syringe (20 mmHg/s). The pain threshold was defined as the pressure in mmHg required to induce a flight (struggle) reaction.
Female Sprague-Dawley rats weighing between 250 and 350 g were used. Inflammation was produced by the intraplanter (i.pl.) injection of 3 mg carrageenan (Sigma Chemical Co., Cat. No., C-1013) suspended in 100 μl isotonic saline solution (0.9%) into the rat's paw.
The pain threshold was measured before (control value) and every hour up to six hours after the injection of carrageenan. The pain threshold measured after carrageenan injection was expressed in percent of the control value.
Unless otherwise specified, protein C was intravenously injected into a vein of the tail immediately upon the carrageenan injection. The injection volume was 2 ml/kg.
A dose response curve for protein C administered i.v. and protein C (i.v.) immediately followed by a solution of 1 mg/kg antibody HPC-4 (i.v.) was determined. The experiments were carried out essentially as set forth in Example 4.
The anti-nociceptive effects of the activation peptide of protein C (SEQ. ID. NO. 1) prepared as described in Example 7 were determined essentially as described in Examples 4 and 6. In the test animals, the […], each, in a constant injection volume of 2 ml/kg, simultaneously with intraplantar (i.pl.) administration of carrageenan into the rat's paw to induce an inflammatory response and pain. In a second set of test animals, antibody HPC-4 (1 mg/kg) was administered i.v. immediately following i.v. administration of the peptide (SEQ. ID. NO. 1). The anti-nociceptive effects of the peptide (SEQ. ID. NO. 1) administration and antagonism thereof by antibody HPC-4 as measured 6 hours later are shown in FIG. 3.

endotoxin shock = conditions: Taylor et al. 1987; cited from earlier work
coronary blood flow = conditions: intracoronary administration; cited from earlier work
[1] = system: thrombus formation on prosthetic vascular grafts; conditions: infusion; Gruber et al. 1989; cited from earlier work
perivascular leukocytes = assay: histological examination of the rat paws; type: in vivo; conditions: rat paws after protein C, compared to untreated animals
Source text: Thus, protein C appears to have an effect on vessel permeability, which allows the migration of leukocytes through the blood vessel into the perivascular region.

[2] = protein C activity, aminolytic assay after activation by Protac; type: biochemical; conditions: finished lyophilized preparation; 1 unit = protein C activity in 1 ml normal plasma
Experimental: The prothrombin complex concentrate was dissolved in the absorption buffer of Example 1, with about 10 g of the prothrombin complex concentrate being employed for a 20 ml monoclonal antibody column. Subsequently, the dissolved prothrombin complex concentrate was filtered, centrifuged at 20,000 r.p.m. for 15 min. and sterilely filtered through a 0.8 μm filter. The sterilely filtered and dissolved prothrombin complex concentrate was applied to the column at a flow rate of 10 ml/h. Subsequently, the column was washed free of protein with the washing buffer of Example 1, the bound protein C was eluted by means of the elution buffer of Example 1 at a flow rate of 5 ml/h and the fractions containing eluted protein C were collected and pooled. The eluted protein C was dialyzed against a buffer (0.2 mol/1 Tris, 0.15 mol glycine and 1 mmol EDTA, pH 8.3). Protein C antigen concentration was determined using the method described by Laurell, and protein C activity was determined using Protac activation.
The lyophilized, virus inactivated material was then dissolved in a sterile isotonic NaCl solution and any antibodies or serum amyloid P potentially present in the preparation were eliminated by means of ion exchange chromatography on a Q-Sepharose column. […] Neither murine immunoglobulin nor Factors II, VII, IX and X could be detected. […]

[3] = system: histamine-induced enhanced vascular permeability; assay: histamine-induced enhanced vascular permeability (Evan's Blue wheals); type: in vivo, guinea pigs
Experimental: (§1) The effect of protein C on capillary leakage in guinea pigs was studied in order to confirm the efficacy of protein C in antagonizing enhanced vessel permeability in anesthetized guinea pigs. The study was carried out as follows:
(§2) After intravenous administration of Evan's Blue, anesthetized guinea pigs received either a protein C concentrate or a formulation buffer. Thereafter, the test animals were treated with histamine or thrombin intracutaneously to induce enhanced vessel permeability, or with saline as a control. The animals were then examined visually for the occurrence of discoloration of the resulting wheals. The results are depicted in FIG. 4 (histamine treatment, protein C or saline), FIG. 5 (thrombin treatment, protein C or saline) and FIG. 6 (thrombin treatment, buffer or saline).
(§3) In these studies, a colorless wheal was recorded as a negative observation (i.e., no disturbance in permeability), whereas a blue skin coloration at the injection site was defined as a positive observation (i.e. increased vessel permeability). The percentage of positive wheals among total wheals produced by the same substance and does within each group of treated animals (n=12 per treatment group) was calculated. […]

[4] = system: thrombin-induced enhanced vascular permeability; assay: thrombin-induced enhanced vascular permeability (Evan's Blue wheals); type: in vivo, guinea pigs
Experimental: as §1, §2, §3

## CC(C)NCC(O)COc1cccc2ccccc12 (centres unmarked) [propranolol, reference compound]
Inflamed rat paw model
  antagonism of the anti-nociceptive effect of protein C: antagonizes the anti-nociceptive effect of protein C

## activated protein C
Endotoxin shock
  protection against coagulopathic and lethal effects of endotoxin shock: protect animals against the coagulopathic and lethal effects of endotoxin shock
Coronary blood flow
  coronary blood flow: increase in coronary blood flow
[1]
  thrombotic occlusion: Thrombotic occlusion was prevented

## CC(C)NCC(O)COc1cccc2[nH]ccc12 (centres unmarked) [pindolol, reference compound]
Inflamed rat paw model; reserpine and alpha-methyl-p-tyrosine treated
  antagonism of the effect of protein C in sympathectomized animals: completely antagonizes the effect of protein C
Inflamed rat paw model
  antagonism of the anti-nociceptive effect of protein C: antagonize the effect of protein C in a dose-dependent manner

## NH2 -Asp-Thr-Glu-Asp-Gln-Glu-Asp-Gln-Val-Asp-Pro-Arg-COOH (H-DTEDQEDQVDPR-OH) [activation peptide of protein C]
Inflamed rat paw model; peptide i.v. 3.125 to 100 μg/kg, measured 6 hours later, FIG. 3
  anti-nociceptive effect: has an anti-nociceptive effect

## protein C: Highly purified human protein C zymogen from prothrombin complex concentrate, purified by monoclonal antibody affinity chromatography, virus inactivated
Perivascular leukocytes
  number of perivascular leukocytes: reduced number of perivascular leukocytes compared to the untreated animals
[2]
  specific activity: 14 units protein C per mg
[3]; 800 IU protein C/Kg i.v., % positive wheals, FIG. 4
  shift of the histamine dose-response curve to the right (factor): 4
[3]; pretreatment with protein C
  effect on histamine-increased endothelial permeability: effective in preventing the effects of both histamine and thrombin on increased endothelial permeability
[4]; 800 IU protein C/Kg i.v., % positive wheals, FIG. 5
  shift of the thrombin dose-response curve to the right (factor): 9
[4]; pretreatment with protein C
  effect on thrombin-increased endothelial permeability: effective in preventing the effects of both histamine and thrombin on increased endothelial permeability
Inflamed rat paw model; % of the pain threshold (control value)
  Pain threshold: 65 ± 2.0% and 60 ± 6%
Inflamed rat paw model; animals treated with reserpine and alpha-methyl-p-tyrosine
  Pain threshold: 106.7 ± 18.1%
Inflamed rat paw model; protein C i.v. immediately upon carrageenan, 8 to 800 U/kg, FIG. 1
  anti-nociceptive effect: significant, dose-dependent anti-nociceptive effect
Inflamed rat paw model; protein C intravenously, carrageenan intraplantar
  signs of inflammation, such as oedema: signs of inflammation, such as oedema, were reduced
Inflamed rat paw model; reserpine 7.5 mg/kg i.p. and alpha-methyl-p-tyrosine 250 mg/kg i.p.
  anti-nociceptive effect after chemical sympathectomy: still acts as a highly effective anti-nociceptive
Inflamed rat paw model; subcutaneous administration
  anti-nociceptive effect: also detectable with subcutaneous administration

## CC(Cc1ccc(O)cc1)NCC(O)c1cc(O)cc(O)c1 (centres unmarked) [fenoterol, reference compound]
Inflamed rat paw model; i.v., either 5 mg/kg at the beginning of the assay or 3 mg/kg at the 3 hr time point
  anti-nociceptive effect: marked anti-nociceptive effect
